# Assay results taken from patent publication US6673780B2, “Sulfoxide and bis-sulfoxide compounds and compositions for cholesterol management and related uses” (Esperion Therapeutics, Inc., priority 2000, dated 2004).
# Experiments:
# rat hepatocyte cells = assay: 14C-acetate incorporation into saponified and non-saponified lipids in hepatocytes; format: cell-based; details: 30 μM; 14C-acetate labeling 4 hr; relative to vehicle control
# Method: Washout buffer containing; 149 mM sodium chloride, 9.2 mM sodium N-2-hyroxyethylpiperazine-N′-2-ethanesulfonic acid, 1.7 mM fructose, 0.5 mM EGTA, 10 U/mL heparin at pH 7.5 and digestion buffer containing; 6.7 mM potassium chloride, 143 mM sodium chloride, 9.2 mM sodium N-2-hyroxyethylpiperazine-N′-2-ethanesulfonic acid, 5 mM calcium chloride-dihydrate, 1.7 mM fructose, 0.2% bovine serum albumin, 100 U/mL collagenase Type I, 93 U/mL Hyaluronidase, 160 BAEE/mL trypsin inhibitor at pH 7.5 were prepared. Solutions were oxygenate prior to perfusion. Wash buffer containing Dulbecco's Modified Eagle Medium (DMEM) containing 4.5 gm/L D-glucose, 2 mM GlutMax-1, 0.2% BSA, 5% fetal bovine serum (FBS), […], 1.2 μM hydrocortisone and DMEM+HS solution containing DMEM, 2 mM GlutMax-1, 20 nM delta-antinolevulinic acid, 17.4mM MEM non-essential amino acids, 20% FBS, 12 nM insulin and 1.2 μM hydrocortisone was prepared. DMEM solution containing DMEM, 2 mM GlutMax-1, 20 nM delta-aminolevulinic acid and 17.4 mM MEM non-essential amino acids were prepared. Male Sprague-Dawley rats weighing 125-250 gms were maintained on a standard rodent chow diet and freely given water. On the evening prior to cell isolation, selected healthy animals were fed restricted. […] The cell concentration was determined in several fields on the hemocytometer. […]
# obese female Zucker rats = assay: Two weeks of daily oral gavage treatment in chow-fed obese female Zucker rats; format: in vivo, rat; details: 100 mg/kg daily oral gavage; for ratio of HDL/non-HDL cholesterol: pretreatment 2.70; for increase of total serum cholesterol: vs pretreatment
# Method: Dosing vehicle of Compound A (100 mg/kg) was administered to 9-10 week old female obese Zucker rats (i.e. the fa/fa or leptin receptor deficient rat) daily for 14 days in the morning by oral gavage in 1.5 percent carboxymethylcellulose/0.2 percent […]. Tail vein blood for glucose determinations (without anesthesia) and orbital blood samples for serum (with anestehesia for all other determinations) were obtained following a 6 hour fast prior to the initial dose and after one and two weeks of dosing.
# Blood serum were assayed for insulin, non-esterified fatty acids, […], total cholesterol, and triglycerides (FIG. 2). Glucose was determined in whole blood (Table 1). Blood serum was also used to produce lipoprotein cholesterol profiles (FIG. 2), and used to determine VLDL plus LDL cholesterol combined (also referred to as apoB containing lipoprotein cholesterol or non-HDL cholesterol), HDL cholesterol, and the ratio of HDL cholesterol to that of VLDL plus LDL cholesterol (FIG. 2). In addition, the effect of Compound A on weight gain after 14 days and the liver to body weight ratio at sacrifice are shown in FIG. 2.
smiles,measurement,setting,value
"CC(C)(CO)CCCC[S+]([O-])CCCCC(C)(C)CO [Compound A, 6-(5,5-Dimethyl-6-hydroxy-hexane-1-sulfinyl)-2,2-dimethyl-hexan-1-ol]",reduction of rate of non-saponifiable lipid synthesis,rat hepatocyte cells,54%
same,reduction of rate of saponifiable lipid synthesis,rat hepatocyte cells,25%
same,"blood glucose levels, pretreatment versus posttreatment","obese female Zucker rats; after one and two weeks, 6 hour fast",similar
same,increase in HDL cholesterol,obese female Zucker rats; after one week of treatment,2.2 fold
same,increase of non-HDL cholesterol (VLDL plus LDL cholesterol),obese female Zucker rats; after one week of treatment,38%
same,reduction of serum triglycerides,obese female Zucker rats; after one week of treatment,48%
same,ratio of HDL/non-HDL cholesterol,obese female Zucker rats; after one week of treatment,3.84
same,increase of total serum cholesterol,obese female Zucker rats; after one week of treatment,98%
same,increase in HDL cholesterol,obese female Zucker rats; after two weeks of treatment,3.1 fold
same,increase of non-HDL cholesterol (VLDL plus LDL cholesterol),obese female Zucker rats; after two weeks of treatment,62%
same,reduction of serum triglycerides,obese female Zucker rats; after two weeks of treatment,42%
same,ratio of HDL/non-HDL cholesterol,obese female Zucker rats; after two weeks of treatment,4.97
same,increase of total serum cholesterol,obese female Zucker rats; after two weeks of treatment,74%
same,serum β-hydroxy butyrate,"obese female Zucker rats; after two weeks, elevated from 2.35 pretreatment",3.94 mg/dL
same,serum non-esterified fatty acids,"obese female Zucker rats; after two weeks, reduced from 2.28 pretreatment",0.74 mmol/L
